In patent US12318403B2, “2′3′-cyclic dinucleotides and prodrugs thereof” (INSTITUTE OF ORGANIC CHEMISTRY AND BIOCHEMISTRY ASCR, V.V.I., priority 2019, dated 2025):
Read-outs that look alike come from different tables or passages of the source.

How the values were obtained:
[1] = target: T1, human WT STING (Homo sapiens, UniProt Q86WV6, H232R); experiment: Differential Scanning Fluorimetry with WT STING; assay type: binding; conditions: thermal shift vs STING apoprotein; 150 μM CDN; truncated WT STING (residues 140-343)
T1 construct: truncated human WT STING or AQ STING (amino acid residues 140-343); 8xHis (N, cleaved yes); SUMO (N, cleaved yes); made in house; host or cells: E. coli Rosetta-gami B (DE3)
T1 sequence (Q86WV6 140-343 H232R): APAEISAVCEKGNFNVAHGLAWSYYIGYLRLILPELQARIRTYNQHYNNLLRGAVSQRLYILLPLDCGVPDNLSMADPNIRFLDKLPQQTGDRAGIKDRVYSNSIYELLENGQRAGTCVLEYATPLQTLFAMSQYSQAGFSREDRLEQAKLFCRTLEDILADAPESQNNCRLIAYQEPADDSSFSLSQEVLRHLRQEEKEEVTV

[2] = target: T2, AQ human STING (G230A-R293Q) (Homo sapiens, UniProt Q86WV6, G230A/H232R/R293Q); experiment: Differential Scanning Fluorimetry with AQ STING; assay type: binding; conditions: thermal shift vs STING apoprotein; 150 μM CDN; truncated AQ STING (residues 140-343)
T2 construct: truncated human WT STING or AQ STING (amino acid residues 140-343); 8xHis (N, cleaved yes); SUMO (N, cleaved yes); made in house; host or cells: E. coli Rosetta-gami B (DE3)
T2 sequence (Q86WV6 140-343 G230A/H232R/R293Q): as the sequence (Q86WV6 140-343 H232R) above, with G91A, R154Q counted along it

[3] = target: T3, human wild type STING (WT STING) (Homo sapiens, UniProt Q86WV6, H232R); experiment: Digitonin assay using 293T wtSTING-FL reporter cells; assay type: cell-based; conditions: 293T wtSTING-FL cells; compounds in Digitonin buffer 30 minutes, then 5 hours in medium; ISRE firefly luciferase
T3 sequence (Q86WV6 whole entry H232R): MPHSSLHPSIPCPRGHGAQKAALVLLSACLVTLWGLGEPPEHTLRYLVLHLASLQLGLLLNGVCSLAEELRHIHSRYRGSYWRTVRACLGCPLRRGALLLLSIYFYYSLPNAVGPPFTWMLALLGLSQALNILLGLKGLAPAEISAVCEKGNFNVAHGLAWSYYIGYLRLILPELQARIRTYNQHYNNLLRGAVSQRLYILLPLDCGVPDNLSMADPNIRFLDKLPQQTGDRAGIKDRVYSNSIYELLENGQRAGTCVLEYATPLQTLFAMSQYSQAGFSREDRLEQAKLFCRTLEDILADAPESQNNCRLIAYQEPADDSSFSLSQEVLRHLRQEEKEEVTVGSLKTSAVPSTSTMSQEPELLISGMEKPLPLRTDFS

[4] = target: T3, human wild type STING (WT STING); experiment: 293T WT STING standard reporter assay; assay type: cell-based; conditions: standard reporter assay without digitonin, 7 hours, ISRE firefly luciferase
[5] = test system: peripheral blood mononuclear cell (PBMC); experiment: Peripheral blood mononuclear cell assay; conditions: average of one to four donors
[6] = 293T wtSTING-FL cells, read-out: 293T WT STING EC50
[7] = PBMC, read-out: PBMC EC50 IFN-α, compounds 1h, washed, 15 hour incubation, interferon-alpha level in medium
[8] = PBMC, read-out: PBMC EC50 IFN-γ, compounds 1h, washed, 15 hour incubation, interferon-gamma level in medium
[9] = PBMC, read-out: PBMC EC50 TNF-α, compounds 1h, washed, 15 hour incubation, tumor necrosis factor-alpha level in medium
[10] = read-out: PBMC EC50 IFN-α, compounds 1h, washed, 15 hour incubation, interferon-alpha level in medium
[11] = read-out: PBMC EC50 IFN-γ, compounds 1h, washed, 15 hour incubation, interferon-gamma level in medium
[12] = read-out: PBMC EC50 TNF-α, compounds 1h, washed, 15 hour incubation, tumor necrosis factor-alpha level in medium

DSF ΔTm WT STING [1] | DSF ΔTm AQ STING [2] | EC50 [3] | EC50 [4, 6] | SMILES | EC50 [5, 7] | EC50 [5, 8] | EC50 [5, 9] | EC50 [5, 10] | EC50 [5, 11] | EC50 [5, 12] | EC50 ([4]; 293T WT STING EC50, 293T wtSTING-FL cells)
8.7 °C | 14.3 °C | 540 nM | 10200 nM | Nc1nc2c(ncn2[C@@H]2O[C@@H]3COP(=O)(S)CO[C@H]4[C@@H](F)[C@H](n5cnc6c(N)ncnc65)O[C@@H]4COP(=O)(S)O[C@@H]2[C@@H]3F)c(=O)[nH]1 (single isomer, unassigned) [Compound 17a] |  |  |  |  |  |  | 
20.9 °C | 26.0 °C | 10 nM | 1100 nM | Nc1ncnc2c1ncn2[C@@H]1O[C@@H]2COP(=O)(S)O[C@@H]3[C@H](F)[C@@H](COP(=O)(O)CO[C@H]2[C@H]1F)O[C@H]3n1cnc2c(=O)[nH]cnc21 (single isomer, unassigned) [Compound 13b] | 150000 nM | 70000 nM | 65000 nM |  |  |  | 
 |  | 600 nM |  | Nc1ncnc2c1ncn2[C@@H]1O[C@@H]2COP(=O)(S)O[C@@H]3[C@H](F)[C@@H](COP(=O)(S)CO[C@H]2[C@H]1F)O[C@H]3n1cnc2c(N)ncnc21 (single isomer, unassigned) [Compound 30c] |  |  |  |  |  |  | 
19.4 °C | 27.0 °C |  | 4700 nM | Nc1nc2c(ncn2[C@@H]2O[C@@H]3COP(=O)(S)CO[C@H]4[C@@H](F)[C@H](n5cnc6c(N)ncnc65)O[C@@H]4COP(=O)(O)O[C@@H]2[C@@H]3F)c(=O)[nH]1 (single isomer, unassigned) [Compound 15b] |  |  |  |  |  |  | 
18.3 °C | 21.8 °C | 9 nM | 1300 nM | Nc1ncnc2c1ncn2[C@@H]1O[C@@H]2COP(=O)(S)O[C@@H]3[C@H](F)[C@@H](COP(=O)(O)CO[C@H]2[C@H]1F)O[C@H]3n1cnc2c(=O)[nH]cnc21 (single isomer, unassigned) [Compound 13a] |  |  |  |  |  |  | 
 |  |  | 3 nM | CCCCCCCCCCCC(=O)OCOP1(=O)CO[C@H]2[C@@H](F)[C@H](n3cnc4c(N)ncnc43)O[C@@H]2COP(=O)(OCOC(=O)CCCCCCCCCCC)O[C@@H]2[C@H](F)[C@@H](CO1)O[C@H]2n1cnc2c(=O)[nH]cnc21 (single isomer, unassigned) [Compound 79c] |  |  |  | 100 nM | 50 nM | 90 nM | 
 |  | 400 nM |  | Nc1ncnc2c1ncn2[C@@H]1O[C@@H]2COP(=O)(S)O[C@@H]3[C@H](F)[C@@H](COP(=O)(S)CO[C@H]2[C@H]1F)O[C@H]3n1cnc2c(N)ncnc21 (single isomer, unassigned) [Compound 30b] |  |  |  |  |  |  | 
18.6 °C | 25.4 °C | 7 nM | 140 nM | Nc1nc2c(ncn2[C@@H]2O[C@@H]3COP(=O)(S)CO[C@H]4[C@@H](F)[C@H](n5cnc6c(N)ncnc65)O[C@@H]4COP(=O)(S)O[C@@H]2[C@@H]3F)c(=O)[nH]1 (single isomer, unassigned) [Compound 17c] |  |  |  | 107000 nM | 42000 nM | 84000 nM | 
 |  |  | 200 nM | CC(C)(C)C(=O)OCOP1(=O)CO[C@H]2[C@@H](F)[C@H](n3cnc4c(N)ncnc43)O[C@@H]2COP(=O)(OCOC(=O)C(C)(C)C)O[C@@H]2[C@H](F)[C@@H](CO1)O[C@H]2n1cnc2c(=O)[nH]cnc21 (single isomer, unassigned) [Compound 77c] |  |  |  | 700 nM | 2300 nM | 3700 nM | 
13.8 °C | 19.7 °C | 20 nM | 2300 nM | Nc1nc2c(ncn2[C@@H]2O[C@@H]3COP(=O)(S)CO[C@H]4[C@@H](F)[C@H](n5cnc6c(N)ncnc65)O[C@@H]4COP(=O)(O)O[C@@H]2[C@@H]3F)c(=O)[nH]1 (single isomer, unassigned) [Compound 15a] |  |  |  |  |  |  | 
 |  |  | 3 nM | CCCCCCCCCCCC(=O)OCOP1(=O)CO[C@H]2[C@@H](F)[C@H](n3cnc4c(N)ncnc43)O[C@@H]2COP(=O)(OCOC(=O)CCCCCCCCCCC)O[C@@H]2[C@H](F)[C@@H](CO1)O[C@H]2n1cnc2c(=O)[nH]cnc21 (single isomer, unassigned) [Compound 79a] | 200 nM |  |  |  | 100 nM |  | 
 |  |  | 8100 nM | Nc1ncnc2c1ncn2[C@@H]1O[C@@H]2COP(=O)(O)O[C@@H]3[C@H](F)[C@@H](COP(=O)(O)CO[C@H]2[C@H]1F)O[C@H]3n1cnc2c(=O)[nH]cnc21 [Compound 22] | 160000 nM | 125000 nM | 90000 nM |  |  |  | 
 |  |  | 50 nM | CC(C)(C)C(=O)OCOP1(=O)CO[C@H]2[C@@H](F)[C@H](n3cnc4c(N)ncnc43)O[C@@H]2COP(=O)(OCOC(=O)C(C)(C)C)O[C@@H]2[C@H](F)[C@@H](CO1)O[C@H]2n1cnc2c(N)ncnc21 (single isomer, unassigned) [Compound 81b] |  |  |  | 1000 nM | 1400 nM | 1300 nM | 
17.3 °C | 23.1 °C | 30 nM | 2500 nM | Nc1nc2c(ncn2[C@@H]2O[C@@H]3COP(=O)(O)CO[C@H]4[C@@H](F)[C@H](n5cnc6c(N)ncnc65)O[C@@H]4COP(=O)(S)O[C@@H]2[C@@H]3F)c(=O)[nH]1 (single isomer, unassigned) [Compound 11a] | 286000 nM |  | 180000 nM |  | 152000 nM |  | 
 |  |  | 20 nM | CCCCCCCCCCCC(=O)OCOP1(=O)CO[C@H]2[C@@H](F)[C@H](n3cnc4c(N)ncnc43)O[C@@H]2COP(=O)(OCOC(=O)CCCCCCCCCCC)O[C@@H]2[C@H](F)[C@@H](CO1)O[C@H]2n1cnc2c(=O)[nH]cnc21 (single isomer, unassigned) [Compound 79b] |  |  |  | 200 nM | 10 nM | 200 nM | 
 |  |  | 1100 nM | CC(C)OC(=O)OCOP1(=O)CO[C@H]2[C@@H](F)[C@H](n3cnc4c(N)ncnc43)O[C@@H]2COP(=O)(OCOC(=O)OC(C)C)O[C@@H]2[C@H](F)[C@@H](CO1)O[C@H]2n1cnc2c(N)ncnc21 (single isomer, unassigned) [Compound 80c] |  |  |  | > 5000 nM | > 5000 nM | > 5000 nM | 
 |  |  |  | CCCCCCCCCCCC(=O)OCSP1(=O)CO[C@H]2[C@@H](F)[C@H](n3cnc4c(N)ncnc43)O[C@@H]2COP(=O)(SCOC(=O)CCCCCCCCCCC)O[C@@H]2[C@H](F)[C@@H](CO1)O[C@H]2n1cnc2c(=O)[nH]c(N)nc21 (single isomer, unassigned) [Compound 78d] |  |  |  | 3400 nM |  | 800 nM | 40 nM
9.3 °C | 13.3 °C |  | 6200 nM | Nc1ncnc2c1ncn2[C@@H]1O[C@@H]2COP(=O)(O)O[C@@H]3[C@H](F)[C@@H](COP(=O)(O)CO[C@H]2[C@H]1F)O[C@H]3n1cnc2c(N)ncnc21 [Compound 28, (1S,6R,8R,9R,10R,16R,18R,19R)-8,18-bis(6-amino-9H-purin-9-yl)-9,19-difluoro-3,13-dihydroxy-2,4,7,11,14,17-hexaoxa-3λ^5,13λ^5-diphosphatricyclo[14.2.1.0^6,^10]nonadecane-3,13-dione] |  |  |  |  |  |  | 
 |  |  | 50 nM | CC(C)(C)C(=O)OCOP1(=O)CO[C@H]2[C@@H](F)[C@H](n3cnc4c(N)ncnc43)O[C@@H]2COP(=O)(OCOC(=O)C(C)(C)C)O[C@@H]2[C@H](F)[C@@H](CO1)O[C@H]2n1cnc2c(N)ncnc21 (single isomer, unassigned) [Compound 81a] | 1400 nM | 1700 nM | 1600 nM |  |  |  | 
22.4 °C | 29.2 °C | 10 nM | 1900 nM | Nc1nc2c(ncn2[C@@H]2O[C@@H]3COP(=O)(O)CO[C@H]4[C@@H](F)[C@H](n5cnc6c(N)ncnc65)O[C@@H]4COP(=O)(S)O[C@@H]2[C@@H]3F)c(=O)[nH]1 (single isomer, unassigned) [Compound 11b] |  |  |  | 227000 nM | 56000 nM | 171000 nM | 
 |  | 11200 nM |  | Nc1ncnc2c1ncn2[C@@H]1O[C@@H]2COP(=O)(S)O[C@@H]3[C@H](F)[C@@H](COP(=O)(S)CO[C@H]2[C@H]1F)O[C@H]3n1cnc2c(N)ncnc21 (single isomer, unassigned) [Compound 30a] |  |  |  |  |  |  | 

SMILES | DSF ΔTm WT STING [1] | DSF ΔTm AQ STING [2] | EC50 [3] | EC50 [4, 6] | EC50 [5, 7] | EC50 [5, 8] | EC50 [5, 9] | EC50 [5, 10] | EC50 [5, 11] | EC50 [5, 12] | EC50 ([4]; 293T WT STING EC50, 293T wtSTING-FL cells)
Nc1nc2c(ncn2[C@@H]2O[C@@H]3COP(=O)(O)O[C@@H]4[C@H](O)[C@@H](COP(=O)(O)O[C@@H]2[C@@H]3O)O[C@H]4n2cnc3c(N)ncnc32)c(=O)[nH]1 [2′2′-cGAMP, reference compound] |  | 19.4 °C | 30 nM | 10200 nM |  |  |  |  |  |  | 
Nc1ncnc2c1ncn2[C@@H]1O[C@@H]2COP(=O)(O)O[C@H]3[C@@H](O)[C@H](n4cnc5c(N)ncnc54)O[C@@H]3COP(=O)(O)O[C@H]2[C@H]1O [3′3′-c-di-AMP, reference compound] | 2.5 °C | 9.0 °C | 300 nM | 202000 nM |  |  |  |  |  |  | 
